Laboratory results reported in PubChem BioAssay (NCI).
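Interpolation was linear, between the two tested concentrations surrounding the appropriate level; five concentrations were tested over 48 hours in 96-well plates. GI50 marks 50% less growth. The concentration for full growth arrest is given as TGI.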

Experiments:
Test in all cases: DTP human tumour cell line panel, 48 h
[1] = test system: BT-549 breast
[2] = test system: HS 578T breast
[3] = test system: MCF7 breast
[4] = test system: MDA-MB-435
[5] = test system: NCI/ADR-RES ovarian
[6] = test system: DMS 273 small cell lung
[7] = test system: KM20L2 colon
[8] = test system: M19-MEL melanoma
[9] = test system: SNB-78 CNS
[10] = test system: DMS 114 small cell lung

| SMILES | GI50 [1] | TGI [1] | GI50 [2] | TGI [2] | GI50 [3] | TGI [3] | GI50 [4] | TGI [4] | GI50 [5] | TGI [5] | TGI [6] | TGI [7] | TGI [8] | TGI [9] | TGI [10] |
| --- | --- | --- | --- | --- | --- | --- | --- | --- | --- | --- | --- | --- | --- | --- | --- |
| COC(=O)CNC(=O)[C@@H](OC)[C@@H]1Cc2cc3cc(OC4CC(OC5CC(O)C(O)C(C)O5)C(O)C(C)O4)c(C)c(O)c3c(O)c2C(=O)[C@H]1OC1CC(OC2CC(OC3CC(C)(O)C(O)C(C)O3)C(O)C(C)O2)C(O)C(C)O1 (stereo partly specified) | 0.114 µM | 1.1 µM | 0.123 µM | 2.64 µM | 0.0546 µM | > 50 µM | 0.166 µM | 1.25 µM | 48.5 µM | > 50 µM | – | – | – | – | – |
| NC(C(=O)[O-])C(=O)[O-].NC1CCCCC1N.[Pt+4] | > 100 µM | > 100 µM | > 100 µM | > 100 µM | 1.71 µM | 5.49 µM | 4.04 µM | > 100 µM | 4.41 µM | > 100 µM | – | – | – | – | – |
| COc1cc(Nc2nc(N[C@H]3CCCC[C@@H]3N)nc3cc[nH]c(=O)c23)cc(OC)c1 | 1.57 µM | 5.03 µM | 1.14 µM | 15.2 µM | 1.37 µM | 8.44 µM | 0.997 µM | 2.6 µM | 41.4 µM | > 100 µM | – | – | – | – | – |
| CN(CCOc1ccc(C#N)cc1)CCOc1ccc(C#N)cc1 | 20.5 µM | > 100 µM | 13.8 µM | > 100 µM | > 100 µM | > 100 µM | 78.8 µM | > 100 µM | 43.8 µM | > 100 µM | – | – | – | – | – |
| Cn1ccnc1C(=O)/C=C/c1ccc(CC(=O)Nc2ccccc2)cc1 | 2.95 µM | 7.54 µM | 14.2 µM | > 25 µM | 1.13 µM | 10.3 µM | 4.3 µM | 13.7 µM | 7.54 µM | > 25 µM | – | – | – | – | – |
| CCC(CC)n1c(C)nc2c1C(=O)c1ccccc1C2=O | – | – | – | – | – | – | – | – | – | – | > 100 µM | > 100 µM | 33.4 µM | > 100 µM | – |
| CN(C)c1ccc2cc(-c3ccccc3F)c(N)nc2c1 | 2.57 µM | 10.6 µM | 2.83 µM | 18.5 µM | 0.431 µM | 14.4 µM | 0.288 µM | 10.3 µM | 1.06 µM | 12.3 µM | – | – | – | – | – |
| CCN(Cc1ccccc1OC)c1ccc(CO)c(Cl)c1 | 12.8 µM | 26 µM | 13.4 µM | 37.2 µM | 0.566 µM | 12.3 µM | 3.06 µM | 12.4 µM | 9.22 µM | 26.9 µM | – | – | – | – | – |
| Fc1cccc(COc2ccc(Nc3ncnc4cc(-c5ccc[nH]5)sc34)cc2Cl)c1 | 0.977 µM | 14.9 µM | 4.53 µM | 21.2 µM | 0.0802 µM | 2.76 µM | 6.11 µM | > 25 µM | 3.29 µM | > 25 µM | – | – | – | – | – |
| CC12CCC(=O)C=C1CCC1C2C(O)CC2(C)C(c3csc(N)n3)CCC12 (stereo unspecified) | – | > 100 µM | – | > 100 µM | – | > 100 µM | – | > 100 µM | – | > 100 µM | – | – | – | – | – |
| NNC(=O)CCC(=O)NC1C2CC3CC(C2)CC1C3 (stereo unspecified) | – | – | – | – | – | – | – | – | – | – | > 100 µM | > 100 µM | > 100 µM | > 100 µM | > 100 µM |
| O=C1/C(=C/c2ccc(O)cc2)COc2ccc(-c3ccccc3)cc21 | 2.64 µM | 13 µM | 3.79 µM | 24.3 µM | 2.8 µM | 12.4 µM | 4.23 µM | 35.8 µM | 10.9 µM | 53.9 µM | – | – | – | – | – |
| COc1ccc(-c2cncn2-c2ccc(OC)cc2)cc1 | 12.3 µM | 32.5 µM | 17.5 µM | 56 µM | 17.4 µM | 41.2 µM | 3.62 µM | 14.1 µM | 19.3 µM | 42.9 µM | – | – | – | – | – |
| CC(=O)OC1c2ccccc2CCCCCCC12OCCO2 (stereo unspecified) | – | – | – | – | – | – | – | – | – | – | – | > 100 µM | – | > 100 µM | > 100 µM |
| CCCCn1cnc2c(SC)ncnc21 | – | > 100 µM | – | > 100 µM | – | > 100 µM | – | > 100 µM | – | > 100 µM | – | – | – | – | – |
| c1cnc2[nH]cc(-c3csc(-c4cn(CCCCN5CCOCC5)c5ccccc45)n3)c2c1 | 2.13 µM | 5.19 µM | 1.77 µM | 4.98 µM | 1.56 µM | 3.57 µM | 1.72 µM | 3.2 µM | 2.04 µM | 4.71 µM | – | – | – | – | – |
| COc1ccc2c(c1)OC(N(C(C)=O)C(C)=O)=C(C#N)C2c1ccc(F)cc1 (stereo unspecified) | 2.22 µM | 40.2 µM | 5.19 µM | > 100 µM | 0.593 µM | > 100 µM | – | – | 0.953 µM | > 100 µM | – | – | – | – | – |
| O=C1C(Cl)=C(Nc2cccc(O)c2)C(=O)N1c1cc(Cl)c(Cl)cc1Cl | – | – | 17.6 µM | 39.4 µM | 20.3 µM | 54.7 µM | 22.7 µM | 55.9 µM | 24.9 µM | 55.7 µM | – | – | – | – | – |
| CC[C@H](CC#N)OC(=O)N[C@@H](C)c1cccc(NC(=O)Nc2ccc(-c3cnco3)c(OC)c2)c1 | 0.238 µM | 34 µM | 1.16 µM | > 51.6 µM | 0.0458 µM | 18.2 µM | 0.0498 µM | 29 µM | 4.87 µM | 62.2 µM | – | – | – | – | – |
| COc1ccc2c3c(c(=O)n(C)c2c1OC)C=CC(C)(C)O3 | – | > 100 µM | – | 78.4 µM | – | > 100 µM | – | > 100 µM | – | 64.3 µM | – | – | – | – | – |
| COc1cc[nH]c1/C=C1\C(=O)Nc2ccc(F)c(I)c21 | > 25 µM | > 25 µM | > 25 µM | > 25 µM | > 25 µM | > 25 µM | > 25 µM | > 25 µM | > 25 µM | > 25 µM | – | – | – | – | – |
| C[C@@H]1COCCN1c1cc(C2(S(C)(=N)=O)CC2)nc(-c2ccnc3[nH]ccc23)n1 (stereo partly specified) | – | – | 2.77 µM | 22.1 µM | 0.528 µM | 70.2 µM | 3.74 µM | 21.8 µM | 23.3 µM | 88.8 µM | – | – | – | – | – |
